In publication PMC3928712 (ACS chemical biology, 2013):

Target: 2009 pandemic H1N1 (pH1N1) PAN endonuclease (Influenza A virus, UniProt C3W5S0)
Conditions: for improvement in inhibitory activity compared to 2: relative to compound 2

Structure (SMILES)	improvement in inhibitory activity compared to 2 [fold]	IC50 (enzymatic assay, PAN endonuclease) [µM]
O=c1[nH]c(-c2ccc(F)cc2)c(-c2ccc(F)cc2)cc1O [Compound 6]	400	
O=c1[nH]c(-c2ccccc2)ccc1O [Compound 4]	40	
O=c1[nH]cc(Br)cc1O [Compound 2]		16
N#Cc1cccc(-c2c[nH]c(=O)c(O)c2)c1 [Compound 3]	20	
